From ChEMBL document CHEMBL5352395, “The discovery of novel antifungal phenylpyridines derivatives based on CYP53 binding model” (Eur J Med Chem, 2022)
Converted amounts (≈) assume the structure as drawn. The source made the active and inactive calls. The calls are words filed in the database; no cut-off is given here.

Assays:
[1] = tested on: Candida albicans; test: Antifungal activity against Candida albicans 17# assessed as reduction in fungal growth; assay type: functional
[2] = tested on: Candida albicans; test: Antifungal activity against Candida albicans ATCC 10231 assessed as reduction in fungal growth; assay type: functional
[3] = tested on: Nakaseomyces glabratus; test: Antifungal activity against Candida glabrata ATCC 0001 assessed as reduction in fungal growth; assay type: functional
[4] = tested on: Pichia kudriavzevii; test: Antifungal activity against Candida krusei ATCC 6258 assessed as reduction in fungal growth; assay type: functional
[5] = tested on: Aspergillus fumigatus; test: Antifungal activity against Aspergillus fumigatus KM8001 assessed as reduction in fungal growth; assay type: functional
[6] = tested on: Candida albicans; test: Antifungal activity against Candida albicans 901 assessed as reduction in fungal growth; assay type: functional
[7] = Toxicity in ip dosed mouse assessed as increase in body weight administered for 10 days; assay type: organism-based; settings: in vivo, 240 h, time 10 day
[8] = Toxicity in ip dosed mouse assessed as ALT level in plasma administered on day 2,4,6,8 and 10 (reference value: 35.9 +/- 4.6 IU/L); assay type: organism-based; settings: in vivo, 240 h, time 10 day
[9] = tested on: Candida albicans; test: Antifungal activity against Candida albicans ATCC SC5314 assessed as induction of ROS production by measuring increase in fluorescence intensity; assay type: functional, organism-based
[10] = Inhibition of CYP53 in Candida albicans ATCC SC5314 assessed as 4-hydroxybenzoate level at 8 ug/ml incubated for 16 hrs by LC-MS analysis (Rvb=82.7%); assay type: ADME; set-up: scale not given: the % may be the effect or the level left; settings: at 8 µg/mL
[11] = tested on: Candida albicans; test: Induction of morphological changes in Candida albicans ATCC SC5314 assessed as appearance of cell wall and membrane remnants at 1 uM/ml incubated for 96 hrs by transmission electron microscopy; assay type: functional, organism-based
[12] = Toxicity in ip dosed mouse assessed as pathological damage in lungs administered on day 2,4,6,8,10 and measured on day 12 by H and E staining based analysis; assay type: organism-based; settings: in vivo, 288 h, time 12 day
[13] = tested on: Candida albicans; test: Antifungal activity against Candida albicans ATCC SC5314 infected in mouse assessed as disappearance of nuclear aggregation phenomenon administered intraperitoneally on day 2,4,6,8 and 10 and measured after 12 days by H and E/GMS staining based analysis; assay type: functional, organism-based; settings: route ip, time 12.0 day
[14] = tested on: Candida albicans; test: Induction of morphological changes in Candida albicans ATCC SC5314 assessed as rupture of cell membranes at 1 uM/ml incubated for 72 hrs by transmission electron microscopy; assay type: functional, organism-based
[15] = tested on: Candida albicans; test: Induction of apoptosis in Candida albicans ATCC SC5314 assessed as necrotic cells incubated for 24 hrs by Annexin V-FITC/PI staining based flow cytometry method (reference value: 5.36%); assay type: functional
[16] = Toxicity in ip dosed mouse assessed as pathological damage in liver administered on day 2,4,6,8,10 and measured on day 12 by H and E staining based analysis; assay type: organism-based; settings: in vivo, 288 h, time 12 day
[17] = tested on: Candida albicans; test: Induction of apoptosis in Candida albicans ATCC SC5314 assessed as late apoptotic cells incubated for 24 hrs by Annexin V-FITC/PI staining based flow cytometry method (reference value: 1.22%); assay type: functional
[18] = tested on: Candida albicans; test: Induction of morphological changes in Candida albicans ATCC SC5314 assessed as disappearance of marginal region of fungal cells at 1 uM/ml incubated for 48 hrs by transmission electron microscopy; assay type: functional, organism-based
[19] = Toxicity in ip dosed mouse assessed as pathological damage in kidneys administered on day 2,4,6,8,10 and measured on day 12 by H and E staining based analysis; assay type: organism-based; settings: in vivo, 288 h, time 12 day
[20] = Toxicity in ip dosed mouse assessed as blood urea nitrogen level in plasma administered on day 2,4,6,8 and 10 (reference value: 7.4 +/ -0.6 mmol/L); assay type: organism-based; settings: in vivo, 240 h, time 10 day
[21] = Toxicity in ip dosed mouse assessed as pathological damage in spleen administered on day 2,4,6,8,10 and measured on day 12 by H and E staining based analysis; assay type: organism-based; settings: in vivo, 288 h, time 12 day
[22] = tested on: Candida albicans; test: Antifungal activity against Candida albicans ATCC SC5314 infected in mouse assessed as reduction in fungal infection administered intraperitoneally on day 2,4,6,8 and 10 and measured after 12 days; assay type: functional, organism-based; settings: route ip, time 12.0 day
[23] = tested on: Candida albicans; test: Induction of mitochondrial membrane potential loss in Candida albicans ATCC SC5314 assessed as polarized cells at 1 uM/ml incubated for 24 hrs by JC-1 staining based flow cytometry analysis (reference value: 93.17%); assay type: functional
[24] = tested on: Candida albicans; test: Induction of apoptosis in Candida albicans ATCC SC5314 assessed as live cells incubated for 24 hrs by Annexin V-FITC/PI staining based flow cytometry method (reference value: 92.69%); assay type: functional
[25] = Inhibition of CYP53 in Candida albicans ATCC SC5314 assessed as benzoate level at 8 ug/ml incubated for 16 hrs by LC-MS analysis (Rvb=11.4%); assay type: ADME; set-up: scale not given: the % may be the effect or the level left; settings: at 8 µg/mL
[26] = tested on: Candida albicans; test: Antifungal activity against Candida albicans ATCC SC5314 assessed as reduction in fungal cell proliferation by measuring cell count (reference value: 216); assay type: functional
[27] = tested on: Candida albicans; test: Induction of morphological changes in Candida albicans ATCC SC5314 assessed as increase in cell permeability at 1 uM/ml incubated for 48 hrs by transmission electron microscopy; assay type: functional, organism-based
[28] = Toxicity in ip dosed mouse assessed as AST level in plasma administered on day 2,4,6,8 and 10 (reference value: 60.3 +/- 5.4 IU/L); assay type: organism-based; settings: in vivo, 240 h, time 10 day
[29] = Inhibition of CYP53 in Candida albicans ATCC SC5314 assessed as unknown sterol level at 8 ug/ml incubated for 16 hrs by LC-MS analysis (Rvb=5.9%); assay type: ADME; set-up: scale not given: the % may be the effect or the level left; settings: at 8 µg/mL
[30] = tested on: Candida albicans; test: Antifungal activity against Candida albicans ATCC SC5314 infected in mouse assessed as recovery of regular cell distribution administered intraperitoneally on day 2,4,6,8 and 10 and measured after 12 days by H and E/GMS staining based analysis; assay type: functional, organism-based; settings: route ip, time 12.0 day
[31] = tested on: Candida albicans; test: Induction of morphological changes in Candida albicans ATCC SC5314 assessed as reduction in cell wall thickness at 1 uM/ml incubated for 48 hrs by transmission electron microscopy; assay type: functional, organism-based
[32] = tested on: Candida albicans; test: Induction of morphological changes in Candida albicans ATCC SC5314 assessed as leakage of endogenous substances in fungal cells at 1 uM/ml incubated for 72 hrs by transmission electron microscopy; assay type: functional, organism-based
[33] = tested on: Candida albicans; test: Induction of apoptosis in Candida albicans ATCC SC5314 assessed as mid apoptotic cells incubated for 24 hrs by Annexin V-FITC/PI staining based flow cytometry method (reference value: 1.03%); assay type: functional
[34] = tested on: Candida albicans; test: Antifungal activity against Candida albicans ATCC SC5314 infected in mouse assessed as reduction in fungal growth in infection region administered intraperitoneally on day 2,4,6,8 and 10 and measured after 12 days by H and E/GMS staining based analysis; assay type: functional, organism-based; settings: route ip, time 12.0 day
[35] = Toxicity in ip dosed mouse assessed as pathological damage in heart administered on day 2,4,6,8,10 and measured on day 12 by H and E staining based analysis; assay type: organism-based; settings: in vivo, 288 h, time 12 day
[36] = tested on: Candida albicans; test: Antifungal activity against Candida albicans ATCC SC5314 assessed as reduction in fungal cell proliferation by measuring cell count (reference value: 235); assay type: functional

CCC(C)C(NC(=O)c1ccc(/C=C/C(=O)N2CCC(C)CC2)cc1)C(=O)Nc1ccncc1 (stereo unspecified)
MIC [1]: 4 µg/mL (≈ 8.65 µM) | MIC [2]: 2 µg/mL (≈ 4.32 µM) | MIC [3]: 2 µg/mL (≈ 4.32 µM) | MIC [4]: 1 µg/mL (≈ 2.16 µM) | MIC [5]: > 16 µg/mL | MIC [6]: 8 µg/mL (≈ 17.3 µM)

CC1CCN(C(=O)/C=C/c2ccc(C(=O)NC(C)C(=O)Nc3ccncc3)cc2)CC1 (stereo unspecified)
MIC [1]: 8 µg/mL (≈ 19 µM) | MIC [2]: 2 µg/mL (≈ 4.76 µM) | MIC [3]: 4 µg/mL (≈ 9.51 µM) | MIC [4]: 4 µg/mL (≈ 9.51 µM) | MIC [5]: 4 µg/mL (≈ 9.51 µM) | MIC [6]: 4 µg/mL (≈ 9.51 µM)

COC(=O)c1ccc(C(=O)NC(C)C(=O)Nc2ccncc2)cc1 (stereo unspecified)
MIC [1]: 4 µg/mL (≈ 12.2 µM) | MIC [2]: 0.5 µg/mL (≈ 1.53 µM) | MIC [3]: 2 µg/mL (≈ 6.11 µM) | MIC [4]: 1 µg/mL (≈ 3.05 µM) | MIC [5]: 4 µg/mL (≈ 12.2 µM) | MIC [6]: 1 µg/mL (≈ 3.05 µM)

CC1CCN(C(=O)c2ccc(C(=O)NC(C)C(=O)Nc3ccncc3)cc2)CC1 (stereo unspecified)
Activity [7]: Toxic | Activity [8]: 47.4 IU/L | Activity [9]: Active | Activity [10]: 23.3% | Activity [11]: Active | Activity [12]: Non-Toxic | Activity [13]: Active | Activity [14]: Active | Activity [15]: 40.61% | Activity [16]: Non-Toxic | MIC [1]: 2 µg/mL (≈ 5.07 µM) | Activity [17]: 0.91% | Activity [18]: Active | Activity [19]: Non-Toxic | Activity [20]: 6.1 mmol/L | Activity [21]: Non-Toxic | Activity [22]: Active | Activity [23]: 68.3% | MIC [2]: 0.5 µg/mL (≈ 1.27 µM) | Activity [24]: 58.17% | Activity [25]: 68.5% | MIC [3]: 0.5 µg/mL (≈ 1.27 µM) | MIC [4]: 1 µg/mL (≈ 2.54 µM) | Activity [26]: 123 | Activity [27]: Active | Activity [28]: 53.7 IU/L | Activity [29]: 8.2% | Activity [30]: Active | Activity [31]: Active | MIC [5]: 2 µg/mL (≈ 5.07 µM) | Activity [32]: Active | MIC [6]: 2 µg/mL (≈ 5.07 µM) | Activity [33]: 0.31% | Activity [34]: Active | Activity [35]: Non-Toxic

CC1CCN(C(=O)c2ccc(C(=O)NCC(=O)Nc3ccncc3)cc2)CC1
MIC [1]: 4 µg/mL (≈ 10.5 µM) | MIC [2]: 1 µg/mL (≈ 2.63 µM) | MIC [3]: 2 µg/mL (≈ 5.26 µM) | MIC [4]: 0.5 µg/mL (≈ 1.31 µM) | MIC [5]: 4 µg/mL (≈ 10.5 µM) | MIC [6]: 4 µg/mL (≈ 10.5 µM)

COC(=O)c1ccc(C(=O)NCC(=O)Nc2ccncc2)cc1
Activity [36]: 112 | Activity [7]: Toxic | Activity [8]: 42.8 IU/L | Activity [10]: 29.5% | Activity [12]: Non-Toxic | Activity [13]: Active | Activity [15]: 33.06% | Activity [16]: Non-Toxic | MIC [1]: 2 µg/mL (≈ 6.38 µM) | Activity [17]: 0.97% | Activity [19]: Non-Toxic | Activity [20]: 6.6 mmol/L | Activity [21]: Non-Toxic | Activity [22]: Active | Activity [23]: 65.59% | MIC [2]: 1 µg/mL (≈ 3.19 µM) | Activity [24]: 65.51% | Activity [25]: 64.1% | MIC [3]: 1 µg/mL (≈ 3.19 µM) | MIC [4]: 0.5 µg/mL (≈ 1.6 µM) | Activity [28]: 68.4 IU/L | Activity [29]: 6.4% | Activity [30]: Active | MIC [5]: 4 µg/mL (≈ 12.8 µM) | MIC [6]: 2 µg/mL (≈ 6.38 µM) | Activity [33]: 0.46% | Activity [34]: Active | Activity [35]: Non-Toxic

CCC(C)C(NC(=O)c1ccc(C(=O)OC)cc1)C(=O)Nc1ccncc1 (stereo unspecified)
MIC [1]: 2 µg/mL (≈ 5.41 µM) | MIC [2]: 4 µg/mL (≈ 10.8 µM) | MIC [3]: 4 µg/mL (≈ 10.8 µM) | MIC [4]: 2 µg/mL (≈ 5.41 µM) | MIC [5]: > 16 µg/mL | MIC [6]: 4 µg/mL (≈ 10.8 µM)

CC1CCN(C(=O)/C=C/c2ccc(C(=O)NCC(=O)Nc3ccncc3)cc2)CC1
MIC [1]: 8 µg/mL (≈ 19.7 µM) | MIC [2]: 1 µg/mL (≈ 2.46 µM) | MIC [3]: 1 µg/mL (≈ 2.46 µM) | MIC [4]: 2 µg/mL (≈ 4.92 µM) | MIC [5]: 8 µg/mL (≈ 19.7 µM) | MIC [6]: 4 µg/mL (≈ 9.84 µM)

OC(Cn1cncn1)(Cn1cncn1)c1ccc(F)cc1F [FLUCONAZOLE]
MIC [1]: > 16 µg/mL | MIC [2]: 0.5 µg/mL (≈ 1.63 µM) | MIC [3]: 0.5 µg/mL (≈ 1.63 µM) | MIC [4]: 0.5 µg/mL (≈ 1.63 µM) | MIC [5]: 4 µg/mL (≈ 13.1 µM) | MIC [6]: > 16 µg/mL

CCC(C)C(NC(=O)c1ccc(C(=O)N2CCC(C)CC2)cc1)C(=O)Nc1ccncc1 (stereo unspecified)
MIC [1]: 4 µg/mL (≈ 9.16 µM) | MIC [2]: 1 µg/mL (≈ 2.29 µM) | MIC [3]: 2 µg/mL (≈ 4.58 µM) | MIC [4]: 1 µg/mL (≈ 2.29 µM) | MIC [5]: 8 µg/mL (≈ 18.3 µM) | MIC [6]: 8 µg/mL (≈ 18.3 µM)
